The target of this assay is Human immunodeficiency virus type 1 protease (Human immunodeficiency virus 1, UniProt Q72874, Q7K). Nature of the assay: Inhibition of HIV1 protease Q7K mutant by FRET method.

Structures are written as SMILES.

In the case of `CCC(=O)CCC(=O)N[C@@H](Cc1ccccc1)[C@H](O)CN(CC(C)C)S(=O)(=O)c1ccc(OC)cc1`, the Ki is 0.24 nM (read-out: Ki) and 0.24 nM (read-out: pKi (converted)).
Take `CC(C)CN(C[C@@H](O)[C@H](Cc1ccccc1)NC(=O)[C@@H](O)C(C)C)S(=O)(=O)c1ccc2ncsc2c1`: the Ki is, setting by setting: (read-out: Ki) 0.29 nM; (read-out: pKi (converted)) 0.288 nM.
As to `CC[C@H](C)CN(C[C@@H](O)[C@H](Cc1ccccc1)NC(=O)[C@H](C)NC(C)=O)S(=O)(=O)c1ccc(OC)cc1`, the Ki (read-out: Ki) is 0.046 nM and the Ki (read-out: pKi (converted)) was 0.0457 nM.
`C/C(=C\C(=O)N(C)[C@@H](Cc1ccccc1)[C@H](O)CN(Cc1cccs1)S(=O)(=O)c1cc(F)c(F)cc1F)C(F)(F)F`: the Ki runs as follows: (read-out: Ki) 52.6 nM; (read-out: pKi (converted)) 52.5 nM.
In the same order, the values of `COc1ccc(S(=O)(=O)N(CC(C)C)C[C@@H](O)[C@H](Cc2ccccc2)NC(=O)C2(C(N)=O)CC2)cc1` are 0.173 nM and 0.174 nM.
`CC[C@H](C)CN(C[C@@H](O)[C@H](Cc1ccccc1)NC(=O)[C@@H]1CN(c2cccc(C(C)=O)c2)C(=O)O1)S(=O)(=O)c1ccc(OC)cc1`: the Ki is 0.232 nM (read-out: Ki) and 0.234 nM (read-out: pKi (converted)).
Regarding `CC[C@H](C)CN(C[C@@H](O)[C@H](Cc1ccccc1)NC(=O)[C@@H]1CN(c2cccc(C(C)=O)c2)C(=O)O1)S(=O)(=O)c1ccc2ncsc2c1`, the Ki by setting is: (read-out: Ki) 0.019 nM; (read-out: pKi (converted)) 0.0191 nM.
Regarding `COc1cccc(S(=O)(=O)N(CC2CC2)C[C@@H](O)[C@H](Cc2ccccc2)NC(=O)c2cccc(C)n2)c1`, the Ki by setting is: (read-out: Ki) 14600 nM; (read-out: pKi (converted)) 14500 nM.
In the case of `Cc1cccc(C(=O)N[C@@H](Cc2ccccc2)[C@H](O)CN(C[C@H](C)O)S(=O)(=O)c2ccco2)n1`, under “read-out: Ki”, the Ki is over 10000 nM.
As to `CCCCCN(C[C@@H](O)[C@H](Cc1ccccc1)NC(=O)C1(C(N)=O)CC1)S(=O)(=O)c1ccc(OC)cc1`, the Ki was 0.79 nM (read-out: Ki) and 0.794 nM (read-out: pKi (converted)).
As for `CCCCCN(C[C@@H](O)[C@H](Cc1ccccc1)NC(=O)C[C@@H](O)CC)S(=O)(=O)c1ccc2ncsc2c1`, the Ki reads like this: (read-out: Ki) 0.7 nM; (read-out: pKi (converted)) 0.708 nM.
Regarding `CCCCCN(C[C@@H](O)[C@H](Cc1ccccc1)NC(=O)C[C@@H](O)CC)S(=O)(=O)c1ccc(OC)cc1`, the Ki (read-out: Ki) amounted to 0.86 nM and the Ki (read-out: pKi (converted)) was 0.851 nM.
In the same order, the values of `CNC(=O)CCC(=O)N[C@@H](Cc1ccccc1)[C@H](O)CN(C[C@H](C)O)S(=O)(=O)c1cccc(OC)c1` are 764 nM and 759 nM.
The like results for `Cc1cccc(OS(=O)(=O)N(C[C@H](C)O)C[C@@H](O)[C@H](Cc2ccccc2)NC(=O)C[C@H]2C=CCC2)c1` were, in that order, 13600 nM and 13500 nM.
The like results for `COc1cccc(S(=O)(=O)N(Cc2cccs2)C[C@@H](O)[C@H](Cc2ccccc2)Nc2cc(F)c(F)c(O)c2F)c1` were, in that order, 515 nM and 513 nM.
Take `CC[C@H](O)CC(=O)N[C@@H](Cc1ccccc1)[C@H](O)CN(CC(C)C)S(=O)(=O)c1ccc2ncsc2c1`: the Ki is 0.134 nM (read-out: Ki) and 0.135 nM (read-out: pKi (converted)).
Consider `Cc1cccc(OS(=O)(=O)N(C[C@@H](O)[C@H](Cc2ccccc2)NC(=O)C[C@H]2C=CCC2)C[C@@H](C)O)c1`, for which the Ki (read-out: Ki) is over 10000 nM.
As to `COc1cccc(S(=O)(=O)N(C[C@@H](O)[C@H](Cc2ccccc2)NC(=O)c2cccc(C)n2)C[C@@H](C)O)c1`, the Ki is, setting by setting: (read-out: Ki) 12200 nM; (read-out: pKi (converted)) 12300 nM.
Regarding `CC[C@H](C)CN(C[C@@H](O)[C@H](Cc1ccccc1)NC(=O)c1cccc(F)c1C)S(=O)(=O)c1ccc2ncsc2c1`, the Ki is 0.033 nM (read-out: Ki) and 0.0331 nM (read-out: pKi (converted)).
On to `CCCCCN(C[C@@H](O)[C@H](Cc1ccccc1)NC(=O)CCC(=O)CC)S(=O)(=O)c1ccc(OC)cc1`, for which the Ki was 4.17 nM (read-out: Ki) and 4.17 nM (read-out: pKi (converted)).
For `CCCCCN(C[C@@H](O)[C@H](Cc1ccccc1)NC(=O)[C@@H](O)C(C)C)S(=O)(=O)c1ccc2ncsc2c1`, the Ki was 0.82 nM (read-out: Ki) and 0.813 nM (read-out: pKi (converted)).
In the same order, the values of `CCCCCN(C[C@@H](O)[C@H](Cc1ccccc1)NC(=O)[C@@H](NC(C)=O)C(C)C)S(=O)(=O)c1ccc(OC)cc1` are 0.038 nM and 0.038 nM.
Take `CC[C@@H](C)CN(C[C@@H](O)[C@H](Cc1ccccc1)NC(=O)[C@@H](NC(C)=O)C(C)C)S(=O)(=O)c1ccc2ncsc2c1`: the Ki was 0.057 nM (read-out: Ki) and 0.0575 nM (read-out: pKi (converted)).
As to `CCC(=O)CCC(=O)N[C@@H](Cc1ccccc1)[C@H](O)CN(C[C@H](C)CC)S(=O)(=O)c1ccc2ncsc2c1`, the Ki is, setting by setting: (read-out: Ki) 0.063 nM; (read-out: pKi (converted)) 0.0631 nM.
In the same order, the values of `CC[C@@H](C)CN(C[C@@H](O)[C@H](Cc1ccccc1)NC(=O)C[C@@H](O)CC)S(=O)(=O)c1ccc(OC)cc1` are 0.34 nM and 0.339 nM.
In the case of `CCCCCN(C[C@@H](O)[C@H](Cc1ccccc1)NC(=O)C1(C(N)=O)CC1)S(=O)(=O)c1ccc2ncsc2c1`, the Ki was 0.21 nM (read-out: Ki) and 0.209 nM (read-out: pKi (converted)).
In the case of `CC[C@@H](C)CN(C[C@@H](O)[C@H](Cc1ccccc1)NC(=O)C1(C(N)=O)CC1)S(=O)(=O)c1ccc2ncsc2c1`, the Ki was 0.132 nM (read-out: Ki) and 0.132 nM (read-out: pKi (converted)).
On to `COc1ccc(S(=O)(=O)N(CC(C)C)C[C@@H](O)[C@H](Cc2ccccc2)Nc2cccc(F)c2C)cc1`, for which the Ki was 0.093 nM (read-out: Ki) and 0.0933 nM (read-out: pKi (converted)).
In the case of `CCCCCN(C[C@@H](O)[C@H](Cc1ccccc1)NC(=O)c1cccc(O)c1)S(=O)(=O)c1ccc2ncsc2c1`, the Ki was 0.309 nM (read-out: Ki) and 0.309 nM (read-out: pKi (converted)).
As for `CC[C@@H](C)CN(C[C@@H](O)[C@H](Cc1ccccc1)NC(=O)c1cccc(O)c1)S(=O)(=O)c1ccc(OC)cc1`, the Ki by setting is: (read-out: Ki) 0.117 nM; (read-out: pKi (converted)) 0.117 nM.
As to `CC(=O)/C=C/C(=O)N[C@@H](Cc1ccccc1)[C@H](O)CN(Cc1cccs1)S(=O)(=O)c1cc(F)c(F)cc1F`, the Ki runs as follows: (read-out: Ki) 610 nM; (read-out: pKi (converted)) 617 nM.
The like results for `COc1cccc(S(=O)(=O)N(Cc2cccs2)C[C@@H](O)[C@H](Cc2ccccc2)NC(=O)[C@H]2CCCC[C@@H]2C)c1` were, in that order, 582 nM and 589 nM.
For `CC[C@H](O)CC(=O)N[C@@H](Cc1ccccc1)[C@H](O)CN(CC(C)C)S(=O)(=O)c1ccc(OC)cc1`, the Ki (read-out: Ki) amounted to 0.37 nM and the Ki (read-out: pKi (converted)) was 0.372 nM.
The like results for `CC[C@@H](C)CN(C[C@@H](O)[C@H](Cc1ccccc1)NC(=O)[C@@H](O)C(C)C)S(=O)(=O)c1ccc(OC)cc1` were, in that order, 0.617 nM and 0.617 nM.
With `COc1ccc(S(=O)(=O)N(CC(C)C)C[C@@H](O)[C@H](Cc2ccccc2)NC(=O)[C@@H](O)C(C)C)cc1`, the Ki was 1.88 nM (read-out: Ki) and 1.86 nM (read-out: pKi (converted)).
The like results for `CNC(=O)CCC(=O)N[C@@H](Cc1ccccc1)[C@H](O)CN(C[C@@H](C)O)S(=O)(=O)c1cccc(OC)c1` were, in that order, 1170 nM and 1170 nM.
Consider `O=C(C[C@H]1C=CCC1)N[C@@H](Cc1ccccc1)[C@H](O)CN(CC1CC1)S(=O)(=O)c1ccco1`, for which the Ki (read-out: Ki) was over 10000 nM.
`COc1ccc(S(=O)(=O)N(CC(C)C)C[C@@H](O)[C@H](Cc2ccccc2)NC(=O)c2cccc(O)c2)cc1`: the Ki was 0.14 nM (read-out: Ki) and 0.141 nM (read-out: pKi (converted)).
Take `COc1ccc(S(=O)(=O)N(CC(C)C)C[C@@H](O)[C@H](Cc2ccccc2)NC(=O)[C@H](C)NC(C)=O)cc1`: the Ki reads like this: (read-out: Ki) 0.117 nM; (read-out: pKi (converted)) 0.117 nM.
As for `Cc1cccc(C(=O)N[C@@H](Cc2ccccc2)[C@H](O)CN(CC2CC2)S(=O)(=O)c2ccco2)n1`, the Ki (read-out: Ki) is over 10000 nM.
Take `CC[C@@H](C)CN(C[C@@H](O)[C@H](Cc1ccccc1)NC(=O)C[C@@H](O)CC)S(=O)(=O)c1ccc2ncsc2c1`: the Ki (read-out: Ki) was 0.067 nM and the Ki (read-out: pKi (converted)) was 0.0676 nM.
Regarding `CC[C@@H](C)CN(C[C@@H](O)[C@H](Cc1ccccc1)NC(=O)C1(C(N)=O)CC1)S(=O)(=O)c1ccc(OC)cc1`, the Ki (read-out: Ki) was determined as 0.21 nM.
With `COc1cccc(S(=O)(=O)N(C[C@H]2CCCO2)C[C@@H](O)[C@H](Cc2ccccc2)NC(=O)[C@@H]2CN(c3cccc(F)c3)C(=O)O2)c1`, the Ki reads like this: (read-out: Ki) 150 nM; (read-out: pKi (converted)) 151 nM.
`CC(C)CN(C[C@@H](O)[C@H](Cc1ccccc1)NC(=O)C1(C(N)=O)CC1)S(=O)(=O)c1ccc2ncsc2c1`: the Ki by setting is: (read-out: Ki) 0.115 nM; (read-out: pKi (converted)) 0.115 nM.
Regarding `CCCCCN(C[C@@H](O)[C@H](Cc1ccccc1)NC(=O)[C@@H](O)C(C)C)S(=O)(=O)c1ccc(OC)cc1`, the Ki was 2.48 nM (read-out: Ki) and 2.45 nM (read-out: pKi (converted)).
In the same order, the values of `O=C(Cc1cccs1)N[C@@H](Cc1ccccc1)[C@H](O)CN(Cc1cccs1)S(=O)(=O)c1cc(F)c(F)cc1F` are 2360 nM and 2340 nM.
The like results for `COc1cccc(S(=O)(=O)N(Cc2cccs2)C[C@@H](O)[C@H](Cc2ccccc2)NC(=O)c2cc(O)c(O)c(O)c2)c1` were, in that order, 1150 nM and 1150 nM.
In the same order, the values of `COc1ccc(S(=O)(=O)N(CC(C)C)C[C@@H](O)[C@H](Cc2ccccc2)NC(=O)/C=C/C(C)=O)cc1` are 0.17 nM and 0.17 nM.
Turning to `Cc1cccc(OS(=O)(=O)N(CC2CC2)C[C@@H](O)[C@H](Cc2ccccc2)NC(=O)C[C@H]2C=CCC2)c1`, the Ki (read-out: Ki) came to 2020 nM and the Ki (read-out: pKi (converted)) was 2040 nM.
Consider `CNC(=O)CCC(=O)N[C@@H](Cc1ccccc1)[C@H](O)CN(C[C@H](C)O)S(=O)(=O)c1ccco1`, for which the Ki (read-out: Ki) is 543 nM and the Ki (read-out: pKi (converted)) was 537 nM.
On to `O=C(N[C@@H](Cc1ccccc1)[C@H](O)CN(Cc1cccs1)S(=O)(=O)c1cc(F)c(F)cc1F)c1ccnnc1`, for which the Ki is 1060 nM (read-out: Ki) and 1070 nM (read-out: pKi (converted)).
`COc1ccc(S(=O)(=O)N(CC(C)C)C[C@@H](O)[C@H](Cc2ccccc2)NC(=O)[C@@H](NC(C)=O)C(C)C)cc1`: the Ki was 0.084 nM (read-out: Ki) and 0.0832 nM (read-out: pKi (converted)).
`Cc1oncc1S(=O)(=O)N(Cc1cccs1)C[C@@H](O)[C@H](Cc1ccccc1)NC(=O)/C=C/C(C)C(F)(F)F` (stereo partly drawn): the Ki reads like this: (read-out: Ki) 13200 nM; (read-out: pKi (converted)) 13200 nM.
On to `CC[C@@H](C)CN(C[C@@H](O)[C@H](Cc1ccccc1)NC(=O)[C@@H](NC(C)=O)C(C)C)S(=O)(=O)c1ccc(OC)cc1`, for which the Ki is, setting by setting: (read-out: Ki) 0.033 nM; (read-out: pKi (converted)) 0.0331 nM.

The values are drawn from ChEMBL document CHEMBL1143396, “Additivity in the analysis and design of HIV protease inhibitors” (J Med Chem, 2009).
